Conditions: Liquid, Vibrating tube method

CCCCCCCCCCCCCC [tetradecane]
Conditions	mass density [kg/m3]
323.2 K, 1050 kPa	737
323.2 K, 2020 kPa	742
323.2 K, 3160 kPa	743
323.2 K, 4070 kPa	744
323.2 K, 5060 kPa	745
323.3 K, 5940 kPa	745
373.4 K, 2080 kPa	707
373.4 K, 4050 kPa	709
373.4 K, 6010 kPa	710
373.4 K, 7070 kPa	711
373.5 K, 2970 kPa	708
373.5 K, 5010 kPa	710
373.6 K, 1010 kPa	706
422.5 K, 1080 kPa	672
422.5 K, 2140 kPa	673
422.6 K, 3020 kPa	675
422.6 K, 4020 kPa	676
422.6 K, 5040 kPa	677
422.6 K, 6050 kPa	679
422.7 K, 7000 kPa	680
422.7 K, 8000 kPa	681
